The values that follow come from ChEMBL document CHEMBL1123117, “Synthesis and antiinflammatory and analgesic activity of 5-aroyl-1,2-dihydro-3H-pyrrolo[1,2-a]pyrrole-1-carboxylic acids and related compounds” (J Med Chem, 1985).

Series [1] is described as follows: physchem. The note with it: octanol/water.
Description: Partition coefficient (logP) (HPLC)
For series [2], the species on record is Rattus norvegicus. The series can be described thus: Antiinflammatory activity using adjuvant arthritis assay. Format: functional.
A short description of the next series: in vivo. The note with it: rat.
Series [3] in a line: physchem.
Description: Dissociation constant (pKa)
Series [4] is filed under the species Mus musculus. The series can be described thus: animal or person.
Description: Effective dose for mouse writhing assay
Series [5] is filed under the species Rattus norvegicus. The series can be described thus: animal or person.
Description: Effective dose for cotton pellet assay
The species entered for series [6] is Rattus norvegicus. Put plainly: animal or person. This is another data set of the same source.
Description: Effective dose for rat paw assay
For series [7], the species on record is Rattus norvegicus. Put plainly: animal or person. The note with it: 168 h.
Description: Effective dose causing 50 % gastrointestinal erosion using seven-day chronic assay.
The species named for series [8] is Rattus norvegicus. The series can be described thus: animal or person. The note with it: 168 h, read-out: MED.
Description: Minimum effective dose causing gastrointestinal erosion using seven-day chronic assay.
For series [9], the species on record is Rattus norvegicus. The series can be described thus: animal or person. The source holds these as a separate data set.
Description: Effective dose for adjuvant arthritis assay
Series [10] can be described thus: Therapeutic ratio as the ratio of MED value to that of ED30 for the carrageenan rat paw assay. The note with it: read-out: Therapeutic ratio. Type of series: ADME. For orientation: The carrageenan paw model is a standard test of acute inflammation.
Series [11] is filed under the species Mus musculus. The series can be described thus: […] activity using mouse writhing assay. Type of series: functional.

Each structure is given as a SMILES string.

A word on the logP: it is the decadic logarithm of the partition coefficient of the neutral form, usually between octanol and water. A higher logP goes with a more lipophilic compound. In turn, `O=C(c1ccccc1)c1ccc2n1CCCCC2C(=O)O` (configuration not stated) registered a logP in the series “physchem [1]” of 3.17. In the case of `O=C(c1cccc(O)c1)c1ccc2n1CCC2C(=O)O` (configuration not stated), the logP in the series “physchem [1]” worked out at 2.18. On the same count and under the same terms, the same measure for `O=C(c1cccc(Cl)c1)c1ccc2n1CCCC2C(=O)O` (configuration not stated): 2.61; for `O=C(c1ccc(F)cc1)c1ccc2n1CCCCC2C(=O)O` (configuration not stated): 3.32. On the same count and under the same terms, the same measure for `CSc1ccc(C(=O)c2ccc3n2CCC3C(=O)O)cc1` (configuration not stated): 3.68; for `O=C(c1c(F)cccc1F)c1ccc2n1CCC2C(=O)O` (configuration not stated): 2.47. In general, pKa refers to the negative logarithm of the acid dissociation constant. A higher pKa goes with a weaker acid or stronger base. Usually ED50 stands for the dose at which the effect has come halfway, by size or by number of responders. `O=C(c1ccc(F)cc1)c1ccc2n1CCC2C(=O)O` (configuration not stated): the Activity in the series filed under Rattus norvegicus [2] is recorded as 1. Also, the selectivity ratio in the series “in vivo” amounted to 20. In addition, the pKa in “physchem [3]” was 3.51. Also, in “physchem [1]”, the log partition coefficient (logP) is 2.82. The ED50 in the series listed under Mus musculus [4] worked out at 70 mg/kg; in the series listed under Rattus norvegicus [7] it was 13 mg/kg/day; in the series filed under Rattus norvegicus [9] it was 1.7 mg/kg. For the same molecule, the ED30 in the series listed under Rattus norvegicus [5] worked out at 3 mg/kg; in the series listed under Rattus norvegicus [6] it was 15 mg/kg. Also, in the series filed under Rattus norvegicus [8], the minimal effective dose stood at 5 mg/kg/day. In the case of `COc1ccc(C(=O)c2ccc3n2CCCC3C(=O)O)cc1` (configuration not stated), the logP in the series “physchem [1]” is 2.9. Same read-out and setting: in the case of `CC(=O)c1ccc(C(=O)c2ccc3n2CCC3C(=O)O)cc1` (configuration not stated) it was 2.27. On to `O=C(c1ccc2ccccc2c1)c1ccc2n1CCC2C(=O)O` (configuration not stated), for which the pKa in “physchem [3]” was determined as 3.44. In the series “physchem [1]”, this molecule came in with a logP of 3.97. Take `O=C(c1cccc([N+](=O)[O-])c1)c1ccc2n1CCC2C(=O)O` (configuration not stated): the logP in “physchem [1]” was found to be 2.47.

In the case of `CC(C)(C)C(=O)c1ccc2n1CCC2C(=O)O` (configuration not stated), the pKa in the series “physchem [3]” turned out to be 3.57. Besides, the logP in “physchem [1]” was determined as 2.6. In turn, `COc1cccc(C(=O)c2ccc3n2CCC3C(=O)O)c1` (configuration not stated) came in with a logP in the series “physchem [1]” of 2.74. Still for that read-out and setting: in the case of `O=C(c1ccc(-c2ccccc2)cc1)c1ccc2n1CCC2C(=O)O` (configuration not stated) it was 4.27; in that of `CSc1ccc(C(=O)c2ccc3n2CCCC3C(=O)O)cc1` (configuration not stated), 3.54. On the same count and under the same terms, in the case of `Cc1ccc(C(=O)c2ccc3n2CCCC3C(=O)O)cc1` (configuration not stated) it was 3.35; in that of `O=C(c1ccc(Br)cc1)c1ccc2n1CCC2C(=O)O` (configuration not stated), 3.6. Turning to `Cc1ccc(C(=O)c2ccc3n2CCC3C(=O)O)cc1` (configuration not stated), the selectivity ratio in series [10] worked out at 8. In “physchem [3]”, the pKa is 3.44. The same molecule returned a logP in “physchem [1]” of 3.24. The ED50 is 70 mg/kg in the series filed under Mus musculus [4], 15 mg/kg/day in the series filed under Rattus norvegicus [7] and 1.7 mg/kg in the series filed under Rattus norvegicus [9]. The ED30 in the series listed under Rattus norvegicus [5] was 3 mg/kg; in the series filed under Rattus norvegicus [6] it was 15 mg/kg. Besides, the minimal effective dose in the series filed under Rattus norvegicus [8] worked out at 3 mg/kg/day. On to `Cc1cccc(C(=O)c2ccc3n2CCC3C(=O)O)c1` (configuration not stated), for which the pKa in the series “physchem [3]” turned out to be 3.44. In the series “physchem [1]”, this molecule yielded a logP of 3.23. In the case of `CS(=O)(=O)c1ccc(C(=O)c2ccc3n2CCCC3C(=O)O)cc1` (configuration not stated), the logP in “physchem [1]” is 1.53. Still for that read-out and setting: the same measure for `O=C(c1c(F)c(F)c(F)c(F)c1F)c1ccc2n1CCC2C(=O)O` (configuration not stated): 3.24; for `O=C(c1cccc(C(F)(F)F)c1)c1ccc2n1CCC2C(=O)O` (configuration not stated): 3.69. Molecule `O=C(c1ccc(Cl)cc1Cl)c1ccc2n1CCC2C(=O)O` (configuration not stated) registered a logP in “physchem [1]” of 3.56.

In the series “physchem [1]”, `O=C(c1ccccc1I)c1ccc2n1CCC2C(=O)O` (configuration not stated) yielded a logP of 2.98. As for `C=Cc1ccc(C(=O)c2ccc3n2CCC3C(=O)O)cc1` (configuration not stated), the Activity in the series listed under Mus musculus [11] was approximately 200. Moreover, the selectivity ratio in the series “in vivo” worked out at 18. In “physchem [1]”, the logP was 3.47. Further, the ED50 turned out to be 70 mg/kg in the series listed under Mus musculus [4], 13 mg/kg/day in the series listed under Rattus norvegicus [7] and 1.7 mg/kg in the series listed under Rattus norvegicus [9]. In addition, the ED30 was determined as 3 mg/kg in the series filed under Rattus norvegicus [5] and 15 mg/kg in the series filed under Rattus norvegicus [6]. Also, in the series filed under Rattus norvegicus [8], the minimal effective dose worked out at 5 mg/kg/day. As to `O=C(c1ccc2n1CCC2C(=O)O)C1CCC1` (configuration not stated), the pKa in “physchem [3]” turned out to be 3.54. Besides, the logP in “physchem [1]” amounted to 2.41. Molecule `O=C(c1ccccc1Cl)c1ccc2n1CCC2C(=O)O` (configuration not stated) gave a pKa in the series “physchem [3]” of 4.33. In the series “physchem [1]”, this molecule returned a logP of 2.71. In the series “physchem [1]”, `N#Cc1ccc(C(=O)c2ccc3n2CCC3C(=O)O)cc1` (configuration not stated) gave a logP of 2.21. Still for that read-out and setting: in the case of `O=C(c1ccc(F)cc1)c1ccc2n1CCCC2C(=O)O` (configuration not stated) it was 2.94; in that of `CSc1ccc(C(=O)c2ccc3n2CCCCC3C(=O)O)cc1` (configuration not stated), 3.92; in that of `C[S+]([O-])c1ccc(C(=O)c2ccc3n2CCC3C(=O)O)cc1` (configuration not stated), 1.08. Same read-out and setting: in the case of `C#Cc1ccc(C(=O)c2ccc3n2CCC3C(=O)O)cc1` (configuration not stated) it was 3.33; in that of `O=C(Cc1ccccc1)c1ccc2n1CCC2C(=O)O` (configuration not stated), 2.52. Same read-out and setting: the same measure for `O=C(c1ccc2c(c1)OCO2)c1ccc2n1CCC2C(=O)O` (configuration not stated): 3.61; for `C#CCOc1ccc(C(=O)c2ccc3n2CCC3C(=O)O)cc1` (configuration not stated): 3.63. In the series “physchem [3]”, `Cc1ccccc1C(=O)c1ccc2n1CCC2C(=O)O` (configuration not stated) returned a pKa of 3.44. The molecule further returned a lipophilicity (logP) in the series “physchem [1]” of 2.9.

On to `O=C(c1cccc(F)c1)c1ccc2n1CCC2C(=O)O` (configuration not stated), for which the pKa in the series “physchem [3]” is 3.46. The logP in “physchem [1]” was determined as 2.9. `O=C(c1ccccc1)c1ccc2n1CC(C(=O)O)C2` (configuration not stated) had a logP in “physchem [1]” of 2.57.

`O=C(c1ccccc1O)c1ccc2n1CCC2C(=O)O` (configuration not stated) returned a logP in “physchem [1]” of 2.94.

Consider `O=C(c1ccc(C(F)(F)F)cc1)c1ccc2n1CCC2C(=O)O` (configuration not stated), for which, in the series “physchem [1]”, the logP worked out at 3.71. Same read-out and setting: the same measure for `CS(=O)(=O)c1ccc(C(=O)c2ccc3n2CCC3C(=O)O)cc1` (configuration not stated): 1.41. Still for that read-out and setting: the same measure for `O=C(c1ccc([N+](=O)[O-])cc1)c1ccc2n1CCC2C(=O)O` (configuration not stated): 2.48. For the molecule `CCOc1ccc(C(=O)c2ccc3n2CCC3C(=O)O)cc1` (configuration not stated), the pKa in “physchem [3]” amounted to 3.46. The lipophilicity (logP) in “physchem [1]” came to 3.3. As for `O=C(c1ccc(Cl)cc1)c1ccc2n1CCCC2C(=O)O` (configuration not stated), the logP in “physchem [1]” came to 3.6.

Consider `O=C(c1ccc(Cl)cc1)c1ccc2n1CC(C(=O)O)C2` (configuration not stated), for which the logP in “physchem [1]” worked out at 3.45. The same measure, in the same setting: in the case of `O=C(c1ccc(F)cc1F)c1ccc2n1CCC2C(=O)O` (configuration not stated) it was 2.59. Take `CCOc1cccc(C(=O)c2ccc3n2CCC3C(=O)O)c1` (configuration not stated): the pKa in “physchem [3]” amounted to 3.46. The same molecule yielded a logP in the series “physchem [1]” of 3.31.

As to `N#Cc1cccc(C(=O)c2ccc3n2CCC3C(=O)O)c1` (configuration not stated), in “physchem [1]”, the logP was found to be 2.14.

The molecule `C=CCOc1ccc(C(=O)c2ccc3n2CCC3C(=O)O)cc1` (configuration not stated) returned a logP in the series “physchem [1]” of 3.48.

The molecule `CC(C)Oc1ccc(C(=O)c2ccc3n2CCC3C(=O)O)cc1` (configuration not stated) showed a pKa in “physchem [3]” of 3.43. Further, the logP in the series “physchem [1]” came to 3.38. The molecule `O=C(c1cccc(Cl)c1)c1ccc2n1CCC2C(=O)O` (configuration not stated) gave a pKa in the series “physchem [3]” of 3.44. For the same molecule, in the series “physchem [1]”, the logP was 3.48.

With `CC(C)C(=O)Nc1cccc(C(=O)c2ccc3n2CCC3C(=O)O)c1` (configuration not stated), in the series “physchem [1]”, the logP amounted to 2.57. As for `COc1ccc(C(=O)c2ccc3n2CCC3C(=O)O)cc1` (configuration not stated) [ANIROLAC], the selectivity ratio in the series “in vivo” turned out to be 39. In addition, in “physchem [3]”, the pKa amounted to 3.55. The logP in the series “physchem [1]” worked out at 2.81. In addition, the ED50 in the series listed under Mus musculus [4] turned out to be 70 mg/kg; in the series filed under Rattus norvegicus [7] it was 22 mg/kg/day; in the series listed under Rattus norvegicus [9], 1.7 mg/kg. Besides, the ED30 was determined as 3 mg/kg in the series filed under Rattus norvegicus [5] and 15 mg/kg in the series listed under Rattus norvegicus [6]. The minimal effective dose in the series listed under Rattus norvegicus [8] stood at 7 mg/kg/day. With `O=C(c1ccccc1)c1ccc2n1CCC2C(=O)O` (configuration not stated) [KETOROLAC], the selectivity ratio in series [10] is 18. The molecule further gave a pKa in the series “physchem [3]” of 3.49. In the series “physchem [1]”, this molecule had a logP of 2.72. The results for the ED50 in the series filed under Mus musculus [4], in the series filed under Rattus norvegicus [7] and in the series listed under Rattus norvegicus [9] were 70 mg/kg, 13 mg/kg/day and 1.7 mg/kg, respectively. The figures for the ED30 in the series listed under Rattus norvegicus [5] and in the series listed under Rattus norvegicus [6] were 3 mg/kg and 15 mg/kg, respectively. For the same molecule, the minimal effective dose in the series filed under Rattus norvegicus [8] was 5 mg/kg/day. With `O=C(c1ccc(O)cc1)c1ccc2n1CCC2C(=O)O` (configuration not stated) [P-HYDROXY KETOROLAC], the logP in the series “physchem [1]” is 2.17.
